Counter-ions that a name gives are not always drawn.
Legend:
HIV-1 integrase = HIV-1 integrase (Human immunodeficiency virus type 1 group M subtype B, UniProt P12497); assay: HIV-1 integrase inhibition assay (microtiter plate, substrate/target DNA, OD 405 nm)
Description: (2) Calculations of the Percent Inhibitions (the IC50 Values of Test Compounds)
Streptavidin, obtained from Vector Laboratories, was dissolved in 0.1 M carbonate buffer (composition: 90 mM Na2CO3, 10 mM NaHCO3) at concentration of 40 μg/ml. After coating each well of microtiter plates (obtained from NUNC) with 50 μl of the above solution at 4° C. over night, each well was washed twice with PBS (composition: 13.7 mM NaCl, 0.27 mM KCl, 0.43 mM Na2HPO4, 0.14 mM KH2PO4) and blocked with 300 μl of 1% skim milk in PBS for 30 min. Additionally, each well was washed twice with PBS and added 50 μl of substrate DNA solution (2 pmol/μl). The microtiter plates were kept at room temperature for 30 min. Then, each well was washed twice with PBS and once with H2O.
Subsequently, in the each well prepared above were added 45 μl of the reaction buffer prepared from 12 μl of the buffer (composition: 150 mM MOPS (pH 7.2), 75 mM MnCl2, 50 mM 2-mercaptoethanol, 25% glycerol, 500 μg/ml bovine serum albumin-fraction V), 1 μl of target DNA (5 pmol/μl), and 32 μl of the distilled water. Additionally, 6 μl of either a test compound in DMSO or DMSO for positive control(PC) was mixed with the above reaction buffer, then 9 μl of an integrase solution (30 pmol) was added and mixed well. In the well of negative control (NC) was added 9 μl of the integrase dilution buffer (composition: 20 mM MOPS (pH7.2), 400 mM potassium glutamate, 1 mM EDTA, 0.1% NP-40, 20% glycerol, 1 mM DTT, 4M urea).
The microtiter plates were incubated at 30° C. for 1 hour. The reaction solution was removed and each well was washed twice with PBS. Subsequently, each well of the microtiter plates was filled with 100 μl of anti-digoxigenin antibody labeled with alkaline phosphatase (Sheep Fab fragment: obtained from Boehringer) and incubated at 30° C. for 1 hour. Then, each well was washed twice with 0.05% Tween20 in PBS and once with PBS. Next, 150 μl of the Alkaline phosphatase reaction buffer (composition: 10 mM p-Nitrophenylphosphate (obtained from Vector Laboratories), 5 mM MgCl2, 100 mM NaCl, 100 mM Tris-HCl (pH 9.5))was added in each well. […] The optical density (OD) at 405 nm of each well was measured and the percent inhibition was determined by the following expression.
The percent inhibition (%)=100[1-{(C abs.−NC abs.)/(PC abs.−NC abs.)}]
C abs.; the OD of the well of the compounds
NC abs.: the OD of the negative control (NC)
PC abs.: the OD of the positive control (PC)
IC50(μg/ml)=x−{(X−50)(x−y)/(X−Y)}

SMILES | melting point | IC50 (HIV-1 integrase) [nM]
O=C(Nc1nncs1)C(O)=CC(=O)c1ccc(Cc2ccc(F)cc2)o1 [I-139, 4-[5-(4-Fluorobenzyl)furan-2-yl]-2-hydroxy-4-oxo-2-butenoic acid ([1,3,4]thiadiazol-2-yl)amide] | 199 to 201 °C (dec.) | –
O=C(Nc1nc[nH]n1)C(O)=CC(=O)c1ccc(Cc2ccc(F)cc2)o1 [I-138, 4-[5-(4-Fluorobenzyl)furan-2-yl]-2-hydroxy-4-oxo-2-butenoic acid (1H-1,2,4-triazol-3-yl)amide] | 250 °C (dec.) | –
O=C(C=C(O)c1nc[nH]n1)c1ccoc1Cc1ccc(F)cc1 [I-49, 1-[2-(4-Fluorobenzyl)furan-3-yl]-3-hydroxy-3-(1H-1,2,4-triazol-3-yl)-propenone] | 170 to 177 °C | –
O=C(C=C(O)c1ncccn1)c1cnc(Cc2ccc(F)cc2)o1 [I-152, 1-[2-(4-Fluorobenzyl)oxazolyl-5-yl]-3-hydroxy-3-(pyrimidin-2-yl)-propenone] | 97 to 100 °C | –
O=C(C=C(O)c1nc[nH]n1)c1ccc(Cc2cccs2)o1 [I-83, 3-Hydroxy-1-[[5-(thiophen-2-yl)methyl]furan-2-yl]-3-(1H-1,2,4-triazol-3-yl)-propenone] | 207 to 208 °C | 4980
O=C(Nc1ccccn1)C(O)=CC(=O)c1ccc(Cc2ccc(F)cc2)o1 [I-135, 4-[5-(4-Fluorobenzyl)furan-2-yl]-2-hydroxy-4-oxo-2-butenoic acid pyridin-2-yl amide] | > 250 °C | –
O=C(O)C(O)=CC(=O)c1ccn(S(=O)(=O)c2ccccc2)c1 [I-23, 4-(1-Benzenesulfonylpyrrol-3-yl)-2-hydroxy-4-oxo-2-butenoic acid] | 186 to 188 °C | –
O=C(C=C(O)c1nc[nH]n1)c1ccc(Cc2ccc(F)cc2F)o1 [I-74, 1-[5-(2,4-Difluorobenzyl)furan-2-yl]-3-hydroxy-3-(1H-1,2,4-triazol-3-yl)-propenone] | 171 to 173 °C | 1300
O=C(Nc1ccccc1)C(O)=CC(=O)c1ccc(Cc2ccc(F)cc2)o1 [I-137, 4-[5-(4-Fluorobenzyl)furan-2-yl]-2-hydroxy-4-oxo-2-butenoic acid phenyl amide] | 132 to 134 °C | –
CCc1nc(C(O)=CC(=O)c2ccc(Cc3ccc(F)cc3)o2)n[nH]1 [I-98, 3-(5-Ethyl-1H-1,2,4-triazol-3-yl)-1-[5-(4-fluorobenzyl)furan-2-yl]-3-hydroxy-propenone] | 204 to 205 °C | 1350
NC(=O)C(O)=CC(=O)c1ccc(Cc2ccc(F)cc2)o1 [I-134, 4-[5-(4-Fluorobenzyl)furan-2-yl]-2-hydroxy-4-oxo-2-butenoic acid amide] | 113 to 115 °C | –
O=C(C=C(O)c1ccccn1)c1cnc(Cc2ccc(F)cc2)o1 [I-151, 1-[2-(4-Fluorobenzyl)oxazolyl-5-yl]-3-hydroxy-3-(pyridin-2-yl)-propenone] | 108 to 109 °C | –
O=C(O)C(O)=CC(=O)c1cc[nH]c1 [I-22, 2-Hydroxy-4-oxo-4-(pyrrol-3-yl)-2-butenoic acid] | 185 to 192 °C | –
Cn1ccnc1C(O)=CC(=O)c1ccc(Cc2ccc(F)cc2)o1 [I-100, 1-[5-(4-Fluorobenzyl)furan-2-yl]-3-hydroxy-3-(1-methyl-1H-imidazol-2-yl)-propenone] | 56 to 57 °C | 4900
O=C(C=C(O)c1nc[nH]n1)c1cnc(Cc2ccc(F)cc2)o1 [I-150, 1-[2-(4-Fluorobenzyl)oxazolyl-5-yl]-3-hydroxy-3-(1H-1,2,4-triazol-3-yl)-propenone] | 200 to 203 °C | 3120
O=C(C=C(O)c1nc[nH]n1)c1cc(Cl)c(Cc2ccc(F)cc2)o1 [I-86, 1-[4-Chloro-5-(4-fluorobenzyl)furan-2-yl]-3-hydroxy-3-(1H-1,2,4-triazol-3-yl)-propenone] | 203 to 204 °C | 1440
O=C(C=C(O)c1nn[nH]n1)c1cn(S(=O)(=O)c2ccccc2)cc1CCc1ccccc1 [I-31, 1-[[1-Benzenesulfonyl-4-(2-phenylethyl)]pyrrol-3-yl]-3-hydroxy-3-(2H-tetrazol-5-yl)-propenone] | 178 to 181 °C | –
O=C(Nc1nccs1)C(O)=CC(=O)c1ccc(Cc2ccc(F)cc2)o1 [I-136, 4-[5-(4-Fluorobenzyl)furan-2-yl]-2-hydroxy-4-oxo-2-butenoic acid thiazol-2-yl amide] | 198 °C (dec.) | –
O=C(/C=C(\O)c1nc[nH]n1)c1cc(C(=O)O)n(Cc2ccccc2)c1 [I-2, 1-[(1-Benzyl-5-carboxy)pyrrol-3-yl]-3-hydroxy-3-(1H-1,2,4-triazol-3-yl)-propenone] | 264 to 265 °C | 2960
O=C(C=C(O)c1nn[nH]n1)c1occc1Cc1ccc(F)cc1 [I-46, 1-[3-(4-Fluorobenzyl)furan-2-yl]-3-hydroxy-3-(2H-tetrazol-5-yl)-propenone] | 171 to 174 °C | –
O=C(O)C(O)=CC(=O)c1ccc(Cc2ccc(F)cc2)o1 [I-54, 4-[5-(4-Fluorobenzyl)furan-2-yl]-2-hydroxy-4-oxo-2-butenoic acid] | 145 to 148 °C | 827

SMILES | melting point | IC50 (HIV-1 integrase) [nM]
O=C(C=C(O)c1ccccn1)c1ccc(Cc2ccc(F)cc2)o1 [I-106, 1-[5-(4-Fluorobenzyl)furan-2-yl]-3-hydroxy-3-(pyridin-2-yl)-propenone] | 84 to 85 °C | –
O=C(C=C(O)c1nn[nH]n1)c1ccoc1Cc1ccc(F)cc1 [I-52, 1-[2-(4-Fluorobenzyl)furan-3-yl]-3-hydroxy-3-(2H-tetrazol-5-yl)-propenone] | 150 to 153 °C | –
O=C(C=C(O)c1nc[nH]n1)c1ccc(Cc2ccccc2Cl)o1 [I-80, 1-[5-(2-Chlorobenzyl)furan-2-yl]-3-hydroxy-3-(1H-1,2,4-triazol-3-yl)-propenone] | 169 to 171 °C | 1610
CCCc1nc(C(O)=CC(=O)c2ccc(Cc3ccc(F)cc3)o2)n[nH]1 [I-112, 1-[5-(4-Fluorobenzyl)furan-2-yl]-3-hydroxy-3-(5-propyl-1H-1,2,4-triazol-3yl)-propenone] | 167 to 168 °C | 1720
O=C(C=C(O)c1nccs1)c1ccc(Cc2ccc(F)cc2)o1 [I-104, 1-[5-(4-Fluorobenzyl)furan-2-yl]-3-hydroxy-3-(thiazol-2-yl)-propenone] | – | 1760
O=C(C=C(O)c1nc[nH]n1)c1ccc(Sc2ccc(F)cc2)o1 [I-68, 1-[5-(4-Fluorophenylthio)furan-2-yl]-3-hydroxy-3-(1H-1,2,4-triazol-3-yl)-propenone] | – | 996
O=C(C=C(O)c1nc[nH]n1)c1ccc(Cc2ccsc2)o1 [I-85, 3-Hydroxy-1-[[5-(thiophen-3-yl)methyl]furan-2-yl]-3-(1H-1,2,4-triazol-3-yl)-propenone] | 210 to 211 °C | 4650
Cc1nc(C(O)=CC(=O)c2ccc(Cc3ccc(F)cc3)o2)cs1 [I-96, 1-[5-(4-Fluorobenzyl)furan-2-yl]-3-hydroxy-3-(2-methylthiazol-4-yl)-propenone] | 96 to 98 °C | 2450
O=C(C=C(O)c1nc[nH]n1)c1ccc(Sc2ccc(F)cc2F)o1 [I-70, 1-[5-(2,4-Difluorophenylthio)furan-2-yl]-3-hydroxy-3-(1H-1,2,4-triazol-3-yl)-propenone] | 158 to 160 °C | 1200
O=C(C=C(O)c1ncc[nH]1)c1ccc(Cc2ccc(F)cc2)o1 (as salt: hydrochloride) [I-101, 1-[5-(4-Fluorobenzyl)furan-2-yl]-3-hydroxy-3-(1H-imidazol-2-yl)-propenone hydrochloride] | 186 to 191 °C | –
Cc1cc(Cc2ccc(F)cc2)oc1C(=O)C=C(O)c1nc[nH]n1 [I-61, 1-[[5-(4-Fluorobenzyl)-3-methyl]furan-2-yl]-3-hydroxy-3-(1H-1,2,4-triazol-3-yl)-propenone] | 191 to 192 °C | 2080
Cc1nc(C(O)=CC(=O)c2ccc(Cc3ccc(F)cc3)o2)n[nH]1 [I-60, 1-[5-(4-Fluorobenzyl)furan-2-yl]-3-hydroxy-3-(5-methyl-1H-1,2,4-triazol-3-yl)-propenone] | 179 to 182 °C | 2110
O=C(C=C(O)c1nc[nH]n1)c1occc1Cc1ccc(F)cc1 [I-45, 1-[3-(4-Fluorobenzyl)furan-2yl]-3-hydroxy-3-(1H-1,2,4-triazol-3-yl)-propenone] | 221 to 223 °C | –
COCc1nc(C(O)=CC(=O)c2ccc(Cc3ccc(F)cc3)o2)n[nH]1 [I-97] | 167 to 168 °C | 1710
O=C(C=C(O)c1nc[nH]n1)c1ccc(Cc2ccsc2Cl)o1 [I-91, 1-[[5-(2-Chlorothiophen-3-yl)methyl]furan-2-yl]-3-hydroxy-3-(1H-1,2,4-triazol-3-yl)-propenone] | 105 to 106 °C | 1790
O=C(C=C(O)c1nn[nH]n1)c1ccc(Cc2ccc(F)cc2)o1 [I-55, 1-[5-(4-Fluorobenzyl)furan-2-yl]-3-hydroxy-3-(2H-tetrazol-5-yl)-propenone] | 121 to 123 °C | –
O=C(C=C(O)c1ncc[nH]1)c1ccc(Cc2ccc(F)cc2)o1 [I-101, 1-[5-(4-Fluorobenzyl)furan-2-yl]-3-hydroxy-3-(1H-imidazol-2-yl)-propenone hydrochloride] | – | 1700
O=C(C=C(O)c1nn[nH]n1)c1c[nH]cc1CCc1ccccc1 [I-25, 3-Hydroxy-1-[(4-(2-phenylethyl))pyrrol-3-yl]-3-(2H-tetrazol-5-yl)-propenone] | 228 to 230 °C | –
O=C(C=C(O)c1nc[nH]n1)c1c[nH]cc1Cc1ccc(F)cc1 [I-14, 1-[4-(4-Fluorobenzyl)pyrrol-3-yl]-3-hydroxy-3-(1H-1,2,4-triazol-3-yl)-propenone] | 210 to 213 °C | –
CCCn1cc(Cc2ccc(F)cc2)c(C(=O)C=C(O)c2nc[nH]n2)c1 [I-35, 1-[[4-(4-Fluorobenzyl)-1-n-propyl]pyrrol-3-yl]-3-hydroxy-3-(1H-1,2,4-triazol-3-yl)-propenone] | 210 to 211 °C | –
